Data on seven compounds can be found in patent US10335504B2, “Heterocyclic molecules for biomedical imaging and therapeutic applications” (Washington University, priority 2013, dated 2019).

One data set concerns the target T1, preformed Aβ1-42 fibrils (Homo sapiens, UniProt P05067).
T1 construct: preformed Aβ1-42 fibrils
Kind of data set: Binding assay with preformed Aβ1-42 fibrils/aggregates in PBS (fluorescence). The text has this: In some embodiments of the present teachings, binding assays to preformed fibrils or AD brain homogenate extracts can be performed using literature procedures (Klunk, W., et al. Uncharged thioflavin-T derivatives bind to amyloid-beta protein with high affinity and readily enter the brain. Life Sci 69, 1471-1484 (2001); Zhen, W., et al. Synthesis and amyloid binding properties of rhenium complexes: preliminary progress towards a reagent for SPECT imaging of Alzheimer's disease brain. J Med Chem 42, 2805-2815 (1999)). Prior to binding assays, the stock solution (2 μM) can be thawed. To aliquots of this stock solution, ^18F-AI-182 (also exemplified for either ^18F-AI-183 or ^18F-AI-187) can be added at various concentrations to a final concentration of 200 nM Aβ fibrils or 200 μL of AD brain extracts (20-25 μg). The aggregate-bound ^18F-AI-182 (or other analogues) can be collected on Whatman GF filters using Brandon M-24R cell harvester, washed, and counted in a γ-counter (Perkin Elmer). Inhibition constants (Ki) can be calculated as described previously (Han, H., Cho, C. & Lansbury, P. J. Technetium complexes for quantification of brain amyloid. J Am Chem Soc 118, 4506-4508 (1996)). Binding assay results can assist in evaluation of target specificity.
Binding assays of F-AI-182 with preformed Aβ1-42 aggregates were performed in PBS. […] Fluorescence was not observed using Aβ aggregates alone in PBS upon excitation at 410 nm (a negative control). […] Comparative analyses can be performed with other compounds such as AV-45, BAYER 94-9172, and AZD4694. An agent can be interacting with either of the two modestly high affinity binding sites (BS1& BS2) or recognizing an entirely new site on Aβ1-42. F-AI-182 can register different complementary binding sites in relation to Aβ-pathophysiology compared to current agents.

Data set [1] deals with T2, Aβ plaques (Homo sapiens, UniProt P05067).
T2 construct: from tissue; host or cells: brain of APPsw+/-/PS1 (and APPsw+/-) transgenic mice: sections ex vivo, and live animals for multiphoton imaging
T2 sequence (P05067 672-713 limits assumed): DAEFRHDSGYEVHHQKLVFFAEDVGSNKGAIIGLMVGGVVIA
Kind of data set: Ex vivo staining of mouse brain sections. It counts as binding. The following applies: APPsw+/− mice, 24 months old. The procedure: FIG. 2 illustrates ex vivo staining studies were performed on brain sections (50 μm) of an APPsw^+/−/PS1 mouse (24 months old) and a control WT mouse (BL/6; 24 months old) using well-established procedures. Briefly, tissue sections were immunostained with mouse monoclonal antibody and visualized by donkey-anti-mouse HJ3.4 Aβ monoclonal antibody-Alexa 568 as a positive control. […] By comparison, no staining in WT mice was seen either with F-AI-182 or the antibody indicating the targeting specificity of F-AI-182. The slides were analyzed on a Zeiss LSM 5 PASCAL confocal system coupled to a Zeiss Axiovert 200 microscope.
The slides were analyzed using a Nikon Ti-E PFS inverted microscope equipped with a Nikon 10x 0.3 NA Plan APO objective, Prior H117 ProScan flat top linear encoded stage, and Prior Lumen 200PRO illumination system with standard DAPI and FITC filter sets. The images were acquired using a Photometrics CoolSNAP HQ2 digital camera and MetaMorph microscopy automaton, and imaging software. Images were processed and analyzed using the Image J software package (NIH).

Data set [2] concerns Aβ plaques. Kind of data set: Staining of human AD brain tissue sections. It counts as binding. The following applies: person with AD. The method, then:
Staining experiments were performed with human brain tissues. Tissue samples were obtained from the frontal lobe of clinically and neuropathologically well-characterized cases. The neuropathological diagnosis of AD was based on the criteria of the Consortium to Establish a Registry for Alzheimer's Disease (CERAD) (Mirra, S., et al. The Consortium to Establish a Registry for Alzheimer's Disease (CERAD). Part II. Standardization of the neuropathologic assessment of Alzheimer's disease. Neurology 41, 479-486 (1991)) or the National Institute of Aging-Reagan Institute (NIA-RI) (Hyman, B. & Trojanowski, J. Consensus recommendations for the postmortem diagnosis of Alzheimer disease from the National Institute on Aging and the Reagan Institute Working Group on diagnostic criteria for the neuropathological assessment of Alzheimer disease. J Neuropathol Exp Neurol 56, 1095-1097. (1997)). […]
The fluorescent probe (F-AI-183) labels fibrillar amyloid (arrow). The slides were analyzed on a using a Nikon Ti-E PFS inverted microscope equipped with a Nikon 10×0.3 NA Plan APO objective, Prior H117 ProScan flat top linear encoded stage, and Prior Lumen 200PRO illumination system with standard DAPI and FITC filter sets. […] Images were processed and analyzed using the Image J software package (NIH).

The subject of another data set is BS1 and BS3 sites. Conditions: cited from earlier work.
The conditions of data set [3]: cited from earlier work.
The conditions of data set [4]: cited from earlier work. The source holds these as a separate data set.
Data set [5] can be described thus: Biodistribution study in normal FVB mice. The following applies: for tissue uptake at 5 min / tissue uptake at 120 min: mouse, intravenous. The class given is in vivo, mouse. The text has this:
In various configurations, agents can be evaluated in part by exploring the tissue distribution and kinetics of ^18F-AI-182 or other agents in normal mice and transgenic mice. Because these heterocyclic molecules can be labeled with ^18F using the methods described herein, biodistribution in normal mice can be determined. In such investigations, BL/6 (control mice; Taconic) or APPsw^+/−/PS1 (transgenic, Taconic) mice can be anesthetized by isoflurane inhalation and injected with ^18F-AI-182 or other agents (20 μCi in 50-100 μl saline) via bolus injection through a tail vein. Animals can be sacrificed by cervical dislocation at 2, 30, 60, and 120 min post-injection (n=2-4) and data can be quantified into % ID/g as described (Sivapackiam, J., et al. Synthesis, molecular structure, and validation of metalloprobes for assessment of MDR1 P-glycoprotein-mediated functional transport. Dalton Trans 39, 5842-5850 (2010)). The brains can be removed and dissected into cerebellums and remaining whole brain fractions prior to weighing and counting to evaluate regional differences in the location of radiotracer in comparison with transgenic mice.
For in vivo imaging of Aβ plaques, the basic pharmacokinetic model in an unaffected normal brain involves high initial penetration of the agent, followed by rapid clearance due to lack of a binding target. However, in AD brains, high initial penetration can be followed by regional retention as the agent binds to Aβ thus leading to differential kinetics. To accomplish this objective, biodistribution studies of ^18F-AI-182 were performed in normal FVB mice for assessment of signal to noise ratios and clearance profiles. Brain uptake of ^18F-AI-182 was analyzed in terms of percent injected dose per gram of the brain tissue (% ID/g). […] This initial brain uptake value (5 min) in normal mice is approximately 15-fold high compared with our Aβ-targeted ^99mTc-Peptides (Harpstrite, S. E., Prior, J., Binz, K., Piwnica-Worms, D. & Sharma, V. ^99mTc-Peptide conjugates for imaging β-amyloid in the brain. ACS Med Chem Lett (2013) under review). […] Net brain uptake of ^18F-AI-182 is 1.2-fold higher than that of ^18F-AV-45. The initial data point for ^18F-AI-182 is at 5 min compared with 2 min for ^18F-AV-45.

The next data set can be described thus: Stability in human serum. The class given is in vitro ADME. The text has this:
In various configurations, identified heterocyclic molecules can be assessed for metabolic stability for use in biomedical imaging applications both in vitro and in vivo using established procedures (e.g., Mathis, C., et al. Synthesis and evaluation of ^11C-labeled 6-substituted 2-arylbenzothiazoles as amyloid imaging agents. J. Med. Chem. 46, 2740-2754 (2003); Sharma, V. Radiopharmaceuticals for assessment of multidrug resistance P-glycoprotein-mediated transport activity. Bioconjug. Chem. 15, 1464-1474 (2004)). In some embodiments, ^18F-AI-182, another agent, or a combination thereof can be incubated in either serum or human serum albumin at time points corresponding to uptake in vivo (5 min to 2 h) and filtered through filters (30 kDa). Free and bound radiotracer can be calculated using previously describe methods (Bartholoma, M. D., et al. Effect of the prosthetic group on the pharmacologic properties of ^18F-labeled rhodamine B, a potential myocardial perfusion agent for positron emission tomography (PET). J Med Chem 55, 11004-11012 (2012)), and can be analyzed by radio-TLC scanner and radio-HPLC. […] Brain tissues, liver, and kidney can be removed (liver and kidney can be used to evaluate their metabolic stability in more stringent in vivo environments), sonicated, extracted and analyzed through radio-TLC and -HPLC.

A short description of data set [6]: Literature biodistribution in normal mice (Choi et al. 2009). It counts as in vivo, mouse.
The conditions of data set [7]: cited from earlier work; for brain uptake: normal mice.

The structures appear in SMILES notation. Entries after “also recorded” stand apart in the source; their conditions may differ. Like-named read-outs stand apart in the source and are kept apart here.

T1 sequence (P05067 672-713 limits assumed): as above

With `CN(C)c1ccc(/C=C/c2nc3cc(OCCF)ccc3[se]2)cn1` [F-AI-183], binding at preformed Aβ1-42 fibrils was put at a Kd of 17 nM. The “staining of brain tissue sections” value on Aβ plaques [1] is recorded as “labeling of Aβ plaques”. The “detection of Aβ plaques in human AD brain cross-sections of frontal lobe” value in the data set with Aβ plaques [2] was “detection of compact Aβ plaques; also recorded: detected compact Aβ plaques”.
As for `CN(C)c1ncc(/C=C/c2nc3cc(OCCF)ccc3[se]2)cn1` [F-AI-187], the affinity at preformed Aβ1-42 fibrils, expressed as Kd, was 1.58 nM.
For `CC(=C(C#N)C#N)c1ccc2cc(N(C)CC[18F])ccc2c1` [FDDNP, 2-(1-(6-[(2-[18F]fluoroethyl)(methyl)amino]-2-naphthyl)ethylidene)malononitrile], in the data set with BS1 and BS3 sites, the “affinity for BS1 and BS3 sites” value was “low affinity”.
As for `[11CH3]Nc1ccc(/C=C/c2ccc(O)cc2)cc1` [SB-13, [^11C]4-N-methylamino-4′-hydroxystilbene], the “biological half-life in serum” value in [3] is “low”.
Turning to `[11CH3]Nc1ccc(-c2nc3ccc(O)cc3s2)cc1` [^11C-PIB, 2-[p-(Methylamino)phenyl]-3-thia-1-aza-5-indanol], the metabolism in vivo result in [4] was “facile metabolism”.
For the compound `CN(C)c1ccc(/C=C/c2nc3ccc(OCC[18F])cc3s2)cn1` [^18F-AI-182], the tissue uptake at 5 min in data set [5] (FVB, kidney, normal mice, 5 min, read-out: kidney uptake) was 6.76 ± 1.57 %ID/g; in data set [5] (FVB, liver, normal mice, 5 min, read-out: liver uptake), 16.3 ± 1.41 %ID/g; in data set [5] (brain, normal FVB mice, 5 min post tail-vein injection, read-out: brain uptake) it was 7.28 ± 0.46 %ID/g. Besides, the tissue uptake at 120 min in data set [5] (FVB, kidney, normal mice, 120 min, read-out: kidney uptake) is 1.57 ± 0.08 %ID/g; in data set [5] (FVB, liver, normal mice, 120 min, read-out: liver uptake), 2.71 ± 0.21 %ID/g; in data set [5] (brain, normal FVB mice, 120 min post tail-vein injection, read-out: brain uptake), 1.54 ± 0.06 %ID/g. The “penetration of brain / blood-brain barrier” value in data set [5] (mice) is listed as “facile penetration of the blood-brain barrier (BBB)”. The “5 min/120 min brain clearance ratio” value in data set [5] (normal mice) stood at 4.73. Moreover, in data set [5] (normal mice), the “initial brain uptake (5 min) compared with Aβ-targeted 99mTc-Peptides” value is “approximately 15 fold”. Besides, the “net brain uptake relative to 18F-AV-45” value in data set [5] (normal mice) is 1.2 fold. Also, in data set [5] (normal mice, 5 min to 120 min), the “blood clearance faster than 18F-AV-45” value is 25%. In the data set “Stability in human serum” (human serum), the “metabolism in human serum” value was “non-metabolized”. Besides, the “time until which non-metabolized in human serum” value in the data set “Stability in human serum” (investigated highest time-point) is on record as “about 30 min”.
As for `CNc1ccc(/C=C/c2ccc(OCCOCCOCC[18F])nc2)cc1` [^18F-AV-45], in data set [6], the “2 min/120 min brain clearance ratio” value was 4.07. Besides, the results for the kidney uptake in [7] (2 min) and in [7] (120 min) were 14.19±2.34 % ID/g and 2.19±0.36 % ID/g, respectively. For the same compound, the liver uptake in data set [7] (120 min) was 4.96±0.90 % ID/g. Also, the brain uptake is 7.33±1.54 % ID/g in data set [7] (2 min post-injection) and 1.80±0.07 % ID/g in data set [7] (120 min post-injection). In [4], the metabolism in vivo entry was “facile metabolism”. For the same compound, the “biological half-life in serum” value in [3] was “low”.
